Laboratory results reported in USRE42890E1, “Furazanobenzimidazoles” (Basilea Pharmaceutica AG, priority 2003, dated 2011).

Legend:
HT1080 = assay: MTS proliferation assay, HT1080; format: cell-based, human; conditions: HT1080, 72 h incubation; read-out: MTS proliferation assay IC 50 HT1080
Method in brief: (§1)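 Human lines, EGFP-transfected or not, grow in RPMI-1640 plus 5% or 10% FCS and 2-mercaptoethanol. They receive test compound for 72 h at final concentrations of 10, 3, 1 and 0.3 μM, and MTS conversion is measured at 492 nm.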

[1] = system: adherent cells or suspension cells; assay: Hoechst 33342 nuclear staining (fraction of apoptotic nuclei); format: cell-based; set-up: key: 0 relating to no activity; 1 relating to weak activity comprising less than 70% of the cells; score 2 relating to strong activity comprising more than 70% of the cells
Jily = assay: MTS proliferation assay, Jily; format: cell-based; conditions: 72 h incubation, read-out: MTS proliferation assay IC 50 Jily
Method in brief: (§2)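 Seed cells in complete RPMI-1640 medium and allow 24 h attachment. Add compounds to final 10 μM, 3 μM, 1 μM or 0.3 μM and incubate 72 h at 37° C. Add MTS, incubate 3 h more, then measure absorption at 492 nm.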

MRC5 = assay: MTS proliferation assay, MRC5; format: cell-based; conditions: MRC5, 72 h incubation; read-out: MTS proliferation assay IC 50 MRC5
Method in brief: as §2

HeLa = assay: MTS proliferation assay, HeLa; format: cell-based, human; conditions: 72 h incubation, read-out: MTS proliferation assay IC 50 HeLa
Method in brief: as §1

Jurkat = assay: MTS proliferation assay, Jurkat; format: cell-based, human; conditions: 72 h incubation, read-out: MTS proliferation assay IC 50 Jurkat
Method in brief: as §1

Nc1ccc(C(=O)Cn2c(-c3nonc3N)nc3ccccc32)cc1[N+](=O)[O-] [Example 65]
IC50 (HT1080): < 10 nM | Hoechst 33342 nuclear staining score ([1]; H460, conc 0.01 μm): 2 (score 2 relating to strong activity comprising more than 70% of the cells) | Hoechst 33342 nuclear staining score ([1]; H460, conc 0.1 μm): 2 (score 2 relating to strong activity comprising more than 70% of the cells) | Hoechst 33342 nuclear staining score ([1]; H460, conc 1 μm): 2 (score 2 relating to strong activity comprising more than 70% of the cells) | Hoechst 33342 nuclear staining score ([1]; HeLa, conc 0.01 μm): 0 | Hoechst 33342 nuclear staining score ([1]; HeLa, conc 0.1 μm): 2 (score 2 relating to strong activity comprising more than 70% of the cells) | Hoechst 33342 nuclear staining score ([1]; HeLa, conc 1 μm): 2 (score 2 relating to strong activity comprising more than 70% of the cells) | Hoechst 33342 nuclear staining score ([1]; Jily, conc 0.01 μm): 2 (score 2 relating to strong activity comprising more than 70% of the cells) | Hoechst 33342 nuclear staining score ([1]; Jily, conc 0.1 μm): 2 (score 2 relating to strong activity comprising more than 70% of the cells) | Hoechst 33342 nuclear staining score ([1]; Jily, conc 1 μm): 2 (score 2 relating to strong activity comprising more than 70% of the cells) | Hoechst 33342 nuclear staining score ([1]; Jurkat, conc 0.01 μm): 2 (score 2 relating to strong activity comprising more than 70% of the cells) | Hoechst 33342 nuclear staining score ([1]; Jurkat, conc 0.1 μm): 2 (score 2 relating to strong activity comprising more than 70% of the cells) | Hoechst 33342 nuclear staining score ([1]; Jurkat, conc 1 μm): 2 (score 2 relating to strong activity comprising more than 70% of the cells) | Hoechst 33342 nuclear staining score ([1]; MRC5, conc 0.01 μm): 0 | Hoechst 33342 nuclear staining score ([1]; MRC5, conc 0.1 μm): 2 (score 2 relating to strong activity comprising more than 70% of the cells) | Hoechst 33342 nuclear staining score ([1]; MRC5, conc 1 μm): 2 (score 2 relating to strong activity comprising more than 70% of the cells) | Hoechst 33342 nuclear staining score ([1]; PBLs, conc 0.01 μm): 0 | Hoechst 33342 nuclear staining score ([1]; PBLs, conc 0.1 μm): 0 | Hoechst 33342 nuclear staining score ([1]; PBLs, conc 1 μm): 0 | IC50 (Jily): < 10 nM | IC50 (MRC5): < 10 nM | IC50 (HeLa): 10 to 100 nM | IC50 (Jurkat): < 10 nM

Nc1nonc1-c1nc2ccccc2n1CC(=O)c1ccc(F)cc1 [Example 67]
IC50 (HT1080): 100 to 1000 nM | Hoechst 33342 nuclear staining score ([1]; H460, conc 0.01 μm): 0 | Hoechst 33342 nuclear staining score ([1]; H460, conc 0.1 μm): 0 | Hoechst 33342 nuclear staining score ([1]; H460, conc 1 μm): 2 (score 2 relating to strong activity comprising more than 70% of the cells) | Hoechst 33342 nuclear staining score ([1]; HeLa, conc 0.01 μm): 0 | Hoechst 33342 nuclear staining score ([1]; HeLa, conc 0.1 μm): 0 | Hoechst 33342 nuclear staining score ([1]; HeLa, conc 1 μm): 2 (score 2 relating to strong activity comprising more than 70% of the cells) | Hoechst 33342 nuclear staining score ([1]; Jily, conc 0.01 μm): 0 | Hoechst 33342 nuclear staining score ([1]; Jily, conc 0.1 μm): 2 (score 2 relating to strong activity comprising more than 70% of the cells) | Hoechst 33342 nuclear staining score ([1]; Jily, conc 1 μm): 2 (score 2 relating to strong activity comprising more than 70% of the cells) | Hoechst 33342 nuclear staining score ([1]; Jurkat, conc 0.01 μm): 0 | Hoechst 33342 nuclear staining score ([1]; Jurkat, conc 0.1 μm): 2 (score 2 relating to strong activity comprising more than 70% of the cells) | Hoechst 33342 nuclear staining score ([1]; Jurkat, conc 1 μm): 2 (score 2 relating to strong activity comprising more than 70% of the cells) | Hoechst 33342 nuclear staining score ([1]; MRC5, conc 0.01 μm): 0 | Hoechst 33342 nuclear staining score ([1]; MRC5, conc 0.1 μm): 0 | Hoechst 33342 nuclear staining score ([1]; MRC5, conc 1 μm): 1 (1 relating to weak activity comprising less than 70% of the cells) | Hoechst 33342 nuclear staining score ([1]; PBLs, conc 0.01 μm): 0 | Hoechst 33342 nuclear staining score ([1]; PBLs, conc 0.1 μm): 0 | Hoechst 33342 nuclear staining score ([1]; PBLs, conc 1 μm): 0 | IC50 (Jily): 10 to 100 nM | IC50 (MRC5): 100 to 1000 nM | IC50 (HeLa): 100 to 1000 nM | IC50 (Jurkat): 100 to 1000 nM

COc1ccc(C(=O)Cn2c(-c3nonc3N)nc3ccccc32)cc1[N+](=O)[O-] [Example 68]
IC50 (HT1080): 100 to 1000 nM | Hoechst 33342 nuclear staining score ([1]; H460, conc 0.01 μm): 0 | Hoechst 33342 nuclear staining score ([1]; H460, conc 0.1 μm): 0 | Hoechst 33342 nuclear staining score ([1]; H460, conc 1 μm): 2 (score 2 relating to strong activity comprising more than 70% of the cells) | Hoechst 33342 nuclear staining score ([1]; HeLa, conc 0.01 μm): 0 | Hoechst 33342 nuclear staining score ([1]; HeLa, conc 0.1 μm): 0 | Hoechst 33342 nuclear staining score ([1]; HeLa, conc 1 μm): 2 (score 2 relating to strong activity comprising more than 70% of the cells) | Hoechst 33342 nuclear staining score ([1]; Jily, conc 0.01 μm): 0 | Hoechst 33342 nuclear staining score ([1]; Jily, conc 0.1 μm): 1 (1 relating to weak activity comprising less than 70% of the cells) | Hoechst 33342 nuclear staining score ([1]; Jily, conc 1 μm): 1 (1 relating to weak activity comprising less than 70% of the cells) | Hoechst 33342 nuclear staining score ([1]; Jurkat, conc 0.01 μm): 0 | Hoechst 33342 nuclear staining score ([1]; Jurkat, conc 0.1 μm): 2 (score 2 relating to strong activity comprising more than 70% of the cells) | Hoechst 33342 nuclear staining score ([1]; Jurkat, conc 1 μm): 2 (score 2 relating to strong activity comprising more than 70% of the cells) | Hoechst 33342 nuclear staining score ([1]; MRC5, conc 0.01 μm): 0 | Hoechst 33342 nuclear staining score ([1]; MRC5, conc 0.1 μm): 0 | Hoechst 33342 nuclear staining score ([1]; MRC5, conc 1 μm): 1 (1 relating to weak activity comprising less than 70% of the cells) | Hoechst 33342 nuclear staining score ([1]; PBLs, conc 0.01 μm): 0 | Hoechst 33342 nuclear staining score ([1]; PBLs, conc 0.1 μm): 0 | Hoechst 33342 nuclear staining score ([1]; PBLs, conc 1 μm): 0 | IC50 (Jily): 10 to 100 nM | IC50 (MRC5): 100 to 1000 nM | IC50 (HeLa): 100 to 1000 nM | IC50 (Jurkat): 10 to 100 nM

COc1ccc(C(=O)Cn2c(-c3nonc3NCCC#N)nc3ccccc32)cc1N [Example 69]
IC50 (HT1080): 100 to 1000 nM | Hoechst 33342 nuclear staining score ([1]; H460, conc 0.01 μm): 0 | Hoechst 33342 nuclear staining score ([1]; H460, conc 0.1 μm): 0 | Hoechst 33342 nuclear staining score ([1]; H460, conc 1 μm): 2 (score 2 relating to strong activity comprising more than 70% of the cells) | Hoechst 33342 nuclear staining score ([1]; HeLa, conc 0.01 μm): 0 | Hoechst 33342 nuclear staining score ([1]; HeLa, conc 0.1 μm): 0 | Hoechst 33342 nuclear staining score ([1]; HeLa, conc 1 μm): 2 (score 2 relating to strong activity comprising more than 70% of the cells) | Hoechst 33342 nuclear staining score ([1]; Jily, conc 0.01 μm): 0 | Hoechst 33342 nuclear staining score ([1]; Jily, conc 0.1 μm): 1 (1 relating to weak activity comprising less than 70% of the cells) | Hoechst 33342 nuclear staining score ([1]; Jily, conc 1 μm): 2 (score 2 relating to strong activity comprising more than 70% of the cells) | Hoechst 33342 nuclear staining score ([1]; Jurkat, conc 0.01 μm): 0 | Hoechst 33342 nuclear staining score ([1]; Jurkat, conc 0.1 μm): 1 (1 relating to weak activity comprising less than 70% of the cells) | Hoechst 33342 nuclear staining score ([1]; Jurkat, conc 1 μm): 2 (score 2 relating to strong activity comprising more than 70% of the cells) | Hoechst 33342 nuclear staining score ([1]; MRC5, conc 0.01 μm): 0 | Hoechst 33342 nuclear staining score ([1]; MRC5, conc 0.1 μm): 0 | Hoechst 33342 nuclear staining score ([1]; MRC5, conc 1 μm): 1 (1 relating to weak activity comprising less than 70% of the cells) | Hoechst 33342 nuclear staining score ([1]; PBLs, conc 0.01 μm): 0 | Hoechst 33342 nuclear staining score ([1]; PBLs, conc 0.1 μm): 0 | Hoechst 33342 nuclear staining score ([1]; PBLs, conc 1 μm): 0 | IC50 (Jily): 100 to 1000 nM | IC50 (MRC5): 100 to 1000 nM | IC50 (HeLa): 100 to 1000 nM | IC50 (Jurkat): 10 to 100 nM
